Measured values as given in ChEMBL document CHEMBL1201862, “PubChem BioAssay data set” (2004).
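Exposure lasted 48 hours, with cells grown in 96-well plates and compounds tested at five concentrations. GI50 marks 50% less growth.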 Calls of active or inactive are those of the source. Cut-off read from the data, not from the text of the source: active = GI50 up to about 1.1 µM and inactive = higher.

Assays:
Experiment in all cases: inhibition of tumour cell growth, NCI panel, 48 h
SF-268 = test system: SF-268
UO-31 = test system: UO-31
UACC-62 = test system: UACC-62
HL-60 = test system: HL-60
SNB-75 = test system: SNB-75
NCI-H23 = test system: NCI-H23
SK-OV-3 = test system: SK-OV-3
NCI-H460 = test system: NCI-H460
NCI-H522 = test system: NCI-H522
NCI/ADR-RES = test system: NCI/ADR-RES
MCF7 = test system: MCF7
SN12C = test system: SN12C
K562 = test system: K562
SF-539 = test system: SF-539
UACC-257 = test system: UACC-257
U-251 = test system: U-251
EKVX = test system: EKVX
SR = test system: SR
MDA-MB-435 = test system: MDA-MB-435
Hs-578T = test system: Hs-578T

Measured: GI50

CSc1nc(CO)c(CO)n1C
inactive: SF-268 > 100 µM | UO-31 > 100 µM | UACC-62 > 100 µM | HL-60 > 100 µM | SNB-75 > 100 µM | NCI-H23 > 100 µM | SK-OV-3 > 100 µM | NCI-H460 > 100 µM | NCI-H522 > 100 µM | NCI/ADR-RES > 100 µM | MCF7 > 100 µM | SN12C > 100 µM | K562 > 100 µM | SF-539 > 100 µM | UACC-257 > 100 µM | U-251 > 100 µM | EKVX > 100 µM

Cc1nnc(Nc2ccccc2)o1
inactive: SF-268 > 100 µM | UO-31 > 100 µM | SR > 100 µM | UACC-62 > 100 µM | HL-60 > 100 µM | SNB-75 > 100 µM | NCI-H23 > 100 µM | MDA-MB-435 > 100 µM | SK-OV-3 > 100 µM | NCI-H522 > 100 µM | NCI/ADR-RES > 100 µM | MCF7 > 100 µM | SN12C > 100 µM | K562 > 100 µM | SF-539 > 100 µM | UACC-257 > 100 µM | U-251 > 100 µM | EKVX > 100 µM

Cc1cc2c(c(=O)o1)C1=S(SC(c3ccccc3)=C1)S2 (stereo not given)
inactive: SF-268 45.7 µM | UO-31 26.5 µM | SR 18.3 µM | UACC-62 39.2 µM | Hs-578T 41.2 µM | SNB-75 26 µM | NCI-H23 78.9 µM | SK-OV-3 23.8 µM | NCI-H460 37.2 µM | NCI-H522 37.6 µM | NCI/ADR-RES 83.4 µM | MCF7 29.6 µM | SN12C 67.3 µM | K562 38.4 µM | SF-539 24.3 µM | UACC-257 > 100 µM | U-251 22.5 µM

CC(=O)Oc1cc2c(cc1OC(C)=O)OCC(c1ccccc1)C2 (stereo not given)
inactive: SF-268 14.7 µM | UO-31 30.2 µM | UACC-62 19.2 µM | HL-60 3.5 µM | SNB-75 8.18 µM | NCI-H23 32.2 µM | SK-OV-3 40.7 µM | NCI-H460 20.7 µM | NCI-H522 2.4 µM | NCI/ADR-RES 31.3 µM | MCF7 32.5 µM | SN12C 26.4 µM | K562 12.1 µM | SF-539 25.7 µM | UACC-257 14.1 µM | U-251 7.6 µM | EKVX 28.3 µM

COc1ccc(/C=C2\CCC(CNc3ccc(Br)cc3)C2=O)cc1 (stereo not given)
inactive: SF-268 > 100 µM | UO-31 73.8 µM | SR 24.2 µM | UACC-62 34.8 µM | HL-60 24.5 µM | NCI-H23 > 100 µM | MDA-MB-435 > 100 µM | SK-OV-3 > 100 µM | NCI-H460 76 µM | NCI-H522 > 10 µM | NCI/ADR-RES > 100 µM | MCF7 21.5 µM | SN12C 10.2 µM | K562 20 µM | UACC-257 > 100 µM | U-251 > 100 µM | EKVX > 100 µM

CC1=Nc2ccccc2OC(C)=C1/N=N/c1ccc2[nH]c(C)nc2c1
inactive: SF-268 > 100 µM | SR > 100 µM | UACC-62 83.4 µM | HL-60 > 100 µM | SNB-75 25.1 µM | NCI-H23 > 100 µM | MDA-MB-435 > 100 µM | SK-OV-3 > 100 µM | NCI-H460 55.2 µM | NCI-H522 > 100 µM | NCI/ADR-RES > 100 µM | MCF7 45.8 µM | SN12C 84.7 µM | K562 > 100 µM | SF-539 > 100 µM | UACC-257 > 100 µM | U-251 > 100 µM | EKVX > 100 µM

CC(=O)c1c(P(=O)(OC(C)C)OC(C)C)nn(-c2ccc([N+](=O)[O-])cc2)c1C
inactive: SF-268 > 100 µM | UO-31 > 100 µM | SR > 100 µM | UACC-62 > 100 µM | HL-60 > 100 µM | SNB-75 > 10 µM | NCI-H23 > 100 µM | SK-OV-3 > 100 µM | NCI-H460 > 100 µM | NCI-H522 > 100 µM | SN12C > 100 µM | K562 > 100 µM | SF-539 > 100 µM | UACC-257 > 100 µM | U-251 > 100 µM | EKVX > 100 µM

NC(=O)C(=CN1C(=O)CC(=O)NC1=S)C(N)=O
inactive: SF-268 > 100 µM | UO-31 > 100 µM | HL-60 > 100 µM | SNB-75 > 100 µM | NCI-H23 > 100 µM | MDA-MB-435 > 100 µM | SK-OV-3 > 100 µM | NCI-H460 > 100 µM | NCI/ADR-RES > 100 µM | MCF7 > 100 µM | SN12C > 100 µM | SF-539 > 100 µM | UACC-257 > 100 µM | U-251 > 100 µM | EKVX > 100 µM

O=C(O)/C(=C/c1ccccc1[N+](=O)[O-])c1ccccc1
inactive: SF-268 > 100 µM | UO-31 > 100 µM | SR > 100 µM | UACC-62 > 100 µM | HL-60 > 100 µM | SNB-75 > 100 µM | NCI-H23 > 100 µM | SK-OV-3 > 100 µM | NCI-H460 > 100 µM | NCI-H522 > 100 µM | SN12C > 100 µM | K562 > 100 µM | SF-539 > 100 µM | UACC-257 > 100 µM | U-251 > 100 µM | EKVX > 100 µM

c1ccc2c(c1)OCCc1cn[nH]c1-2
inactive: SF-268 > 100 µM | UO-31 > 100 µM | UACC-62 66.7 µM | HL-60 60.3 µM | SNB-75 42 µM | NCI-H23 > 100 µM | SK-OV-3 > 100 µM | NCI-H460 > 100 µM | NCI-H522 > 100 µM | NCI/ADR-RES > 100 µM | MCF7 > 100 µM | SN12C > 79.3 µM | K562 > 100 µM | SF-539 > 100 µM | UACC-257 > 100 µM | U-251 > 100 µM | EKVX 80.5 µM

NC1=NS(=O)(=O)Nc2[nH]c(-c3ccccc3)nc21
inactive: SF-268 > 100 µM | UO-31 > 100 µM | SR > 100 µM | UACC-62 > 100 µM | HL-60 > 100 µM | SNB-75 > 100 µM | NCI-H23 > 100 µM | SK-OV-3 > 100 µM | NCI-H460 > 100 µM | NCI-H522 > 100 µM | SN12C > 100 µM | K562 > 100 µM | SF-539 > 100 µM | UACC-257 > 100 µM | U-251 > 100 µM | EKVX > 100 µM

CCOC(=O)Nc1cc2nnc(-c3ccccc3)nc2c(N)n1
inactive: SF-268 29.2 µM | UO-31 27.9 µM | SR 23.9 µM | UACC-62 9.35 µM | HL-60 17.7 µM | SNB-75 14.9 µM | NCI-H23 14.1 µM | SK-OV-3 2.45 µM | NCI-H460 3.28 µM | NCI-H522 > 10 µM | SN12C 35.2 µM | K562 5.14 µM | SF-539 18.4 µM | UACC-257 15.7 µM | U-251 30.5 µM | EKVX 43.7 µM
